The values below are quoted from earlier work in publication PMC3131558, “Plitidepsin Has a Safe Cardiac Profile: A Comprehensive Analysis” (Marine Drugs, 2011).

The conditions of this series: possible class effect of HDACI inhibitors; cited from earlier work. An excerpt: Plitidepsin has neither shown cardiac toxicity during preclinical/toxicology studies nor has been reported in early phase I clinical trials.

`O=C(/C=C/c1ccc(CN(CCO)CCc2c[nH]c3ccccc23)cc1)NO` [LAQ824]: the “Electrocardiogram (ECG) abnormalities” value is on record as “reported”.

Turning to `Cc1[nH]c2ccccc2c1CCNCc1ccc(/C=C/C(=O)NO)cc1` [LBH589], the “Electrocardiogram (ECG) abnormalities” value is listed as “reported”.
